In patent publication US11485714B2, “Hydroxyethylamine-based piperazine compounds, and methods of producing and using the same for treating disease” (National Institute of Immunology, priority 2020, dated 2022):
Read-outs that look alike come from different tables or passages of the source.

Tests used:
Format in all cases: cell-based
[1] = tested on: P. falciparum CQ-resistant (PfDd2); experiment: SYBR Green I assay, asynchronous cultures, CQ-resistant clone; settings: Plasmodium falciparum, read-out: PfDd2 IC50, nM (±SD)
[2] = tested on: P. falciparum CQ-sensitive (Pf3D7); experiment: SYBR Green I assay, asynchronous cultures, CQ-sensitive clone; settings: Plasmodium falciparum, read-out: Pf3D7 IC50, nM (±SD)
Description: Initially, antimalarial activity of Compound I was assessed on asynchronous cultures of P. falciparum sensitive (Pf3D7) clone using the SYBR Green assay. […] DMSO was used as a vehicle control, CQ (Chloroquine), DOX (Doxycycline) and DHA (Dihydroartemisinin).

[3] = tested on: Field isolates from Kenya (P. falciparum infected blood); experiment: Screening against freshly collected field isolates; settings: Plasmodium falciparum, read-out: Field isolates from Kenya IC50, nM (±SD)
[4] = asynchronous cultures, 37° C., 72 hours, SYBR Green I

Row | IC50 [1, 4] [nM] | IC50 [2, 4] [nM] | IC50 ([3]; Table 1) [nM] | Structure (SMILES) | IC50 ([1]; 72 h) [nM] | IC50 ([2]; 72 h) [nM] | IC50 [3] [nM]
1 | 46 | 27 | 7.37 | C[C@H]1[C@@H](O)O[C@@H]2O[C@@]3(C)CC[C@H]4[C@H](C)CC[C@@H]1[C@@]24OO3 [Dihydroartemisinin, reference compound] |  |  | 
2 |  |  |  | CCN(CC)CCCC(C)Nc1ccnc2cc(Cl)ccc12 (stereo not drawn) [Chloroquine, reference compound] | 137 | 32.3 | 75.2
